Assay results: US20090282496A1, “Androgen Receptor Related Methods for Treating Bladder Cancer” (University of Rochester Medical Center, priority 2008, published 2009)
Marks after values point to notes of the source that are not given here.

Key:
TCC-SUP cells = experiment: Cell proliferation assay (MTT), TCC-SUP; type: cell-based, human; settings: 6 days; for effect on growth: TCC-SUP subline that expresses AR-siRNA
UMUC3 cells = experiment: Cell proliferation assay (MTT), UMUC3; type: cell-based, human; settings: 6 days; for effect on growth: UMUC3 subline that expresses AR-siRNA
TCC-SUP xenograft tumors = experiment: TCC-SUP mouse xenograft, tumor progression study; type: in vivo, male athymic nude mouse
Description: Total RNA from mouse bladder and xenograft tumor tissues and cultured cells was extracted by the acid guanidinium-phenol-chloroform method as previously described (Miyamoto et al., Cancer, 75:2565-70 (1995)) or by using Trizol reagent (Life Science). Isolated RNAs were reverse transcribed to cDNA using random hexamers as described (Miyamoto et al., Cancer, 75:2565-70 (1995) and Miyoshi et al., Prostate, 56:280-6 (2003)), and amplified by PCR using a primer set specific for the AR gene (Miyoshi et al., Prostate, 56:280-6 (2003)). Using the iCycler (Bio-Rad) and the methods previously described by Miyoshi et al., Prostate, 56:280-6 (2003), real-time quantitative PCR analysis of AR, basic fibroblast growth factor (bFGF), vascular endothelial growth factor (VEGF), and matrix metalloproteinase-9 (MMP-9) was performed on the tissue samples from mouse xenograft tumors. The following PCR primers were designed using Beacon Designer 2 (Premier Biosoft): bFGF: 5′-[…]-3′ (SEQ ID NO. 1) and 5′-[…]-3′ (SEQ ID NO. 2), VEGF: 5′-[…]-3′ (SEQ ID NO. 3) and 5′-[…]-3′ (SEQ ID NO. 4), and MMP-9: 5′-[…]-3′ (SEQ ID NO. 5) and 5′-[…]-3′ (SEQ ID NO. 6). β-actin was used as an internal control.
(§1) Bladder cancer cell lines (TCC-SUP, UMUC3, and 5637) were harvested, washed twice with PBS, and resuspended in Matrigel (BD Bioscience) at a final concentration of 1×10^7 cells/mL. Cells (1×10^6 cells in 100 μl per site) were then injected subcutaneously into the right and left flanks of 6-week-old male athymic nude mouse. Treatment (castration or sham surgery, flutamide [0.5 mg/mouse] or placebo pellet injection, and the recently developed anti-AR molecule ASC-J9 (50 mg/Kg or DMSO injection) (Ohtsu et al., J. Med. Chem., 45:5037-42 (2002)) was initiated either (1) at the same time as tumor cell injection (for tumor incidence studies, n=8 mice in each group) or (2) when the sizes of all tumors reached 40 mm^3 (for tumor progression studies, n=12 tumors from 6 mice in each group). Hormonal pellets were replaced as required (every 90 days). Tumor weight was calculated by the following formula: tumor weight (mg)=tumor length (mm)×[tumor width (mm)]^2×0.5 (Geram et al., Cancer Chemother. Rep., 3:47-52 (1972)). Using calipers, each tumor was measured twice a week until either the tumor size reached 40 mm^3 (for tumor incidence study) (Chen et al., Nat. Med., 10:33-9 (2004)), or until the tumor exceeded 10% of the animal's body weight, at which time the mouse was killed (for tumor progression study).

[1] = tested on: TCC-SUP and UMUC3 stable sublines (control-siRNA, AR-siRNA); experiment: Tumor incidence (tumorigenicity) study of control-siRNA and AR-siRNA sublines in nude mice; type: in vivo, male athymic nude mouse
Description: The reporter plasmids [mouse mammary tumor virus (MMTV)-luciferase (Luc) and (ARE)4-Luc (provided by Dr. Michael L. Lu at Harvard Medical School)] as well as a retrovirus vector pMSCV/U6 (Clontech)-AR-siRNA were described in previous studies (Miyamoto et al., Int. J. Cancer, 117:866-72 (2005) and Yeh et al., J. Exp. Med. 198:1899-908 (2003)). Using SuperFect reagent (Qiagen), stable cell lines expressing the AR-siRNA were established by transfecting pMSCV/U6-AR-siRNA into Phi-NX packaging retrovirus producer cells (developed by the Nolan Lab at Stanford University). The target cells (i.e., TCC-SUP, UMUC3, and 5637) were then cultured in the presence of the viral supernatant, and infected cells were selected with puromycin (Sigma).
as §1

[2] = tested on: BBN-induced bladder tumors; settings: mouse, in vivo
Protocol: (§2) Animal care was provided in accordance with institutional guidelines. Five to six weeks old ARKO mice (male: n=48; female: n=24) and their wild-type littermates (male: n=48; female: n=24) were supplied ad libitum with tap water containing 0.05% BBN (TCI America) in opaque bottles for 12 weeks, and thereafter with tap water without BBN. To estimate BBN intake, the drinking water was prepared fresh twice a week, and consumption was recorded. […] Before starting BBN treatment, wild-type male mice received surgical castration (n=24) or sham surgery (n=24) at 5 weeks of age. […] Every 90 days, these pellets were replaced. At 20 (n=4 in each group), 30 (n=8 in each group), or 40 (n=12 in each group) weeks of age, the mice were killed by administration of pentobarbital followed by rapid cervical dislocation. Urinary tract specimens were harvested. These specimens were preserved in phosphate-buffered 10% formalin, embedded in paraffin, sectioned, stained with hematoxylin and eosin, and examined microscopically to identify carcinoma or other pathological changes. Paraffin-embedded sections were also used for immunohistochemical analysis. Part of each specimen was rapidly frozen in liquid nitrogen and stored at −80° C. for subsequent RNA analysis.
(§3) Sections (5-7 μm thick) from paraffin-embedded mouse urinary tract tissue and xenograft tumors (see below) were deparaffinized in xylene and rehydrated in a graded ethanol series. Sections were then incubated in 3% hydrogen peroxide to block endogenous peroxidase, with a protein blocking solution containing preimmune rabbit serum, and finally with a 1:500 dilution of primary antibody (rabbit polyclonal anti-proliferating cell nuclear antigen (PCNA) (Santa Cruz). Samples were incubated with peroxidase-conjugated anti-rabbit IgG. The slides were rinsed with PBS, incubated with diaminobenzidine, and finally counterstained with hematoxylin. The TUNEL assay was performed on additional rehydrated sections from paraffin-embedded mouse urinary tract tissue and xenograft tumor using the Fluorescein-FragEL DNA Fragmentation Detection kit (Calbiochem), according to the manufacturer's instructions, followed by counterstaining for DNA with DAPI. The percentage of apoptotic cells was determined by fluorescence microscopy. The percentage of PCNA- and TUNEL-positive cells in 1000 cells counted on each specimen were used to determine the amount of cell proliferation and apoptotic indices, respectively.

[3] = tested on: BBN-induced bladder tumors; settings: wild-type mice, drinking water with BBN at 0.01-0.05% for 10-20 weeks; previous studies; cited from earlier work
[4] = tested on: AR-negative bladder cancer cell lines (5637); experiment: Cell proliferation assay (MTT), AR-negative bladder cancer cell lines; type: cell-based, human; settings: AR-negative 5637 subline that expresses AR-siRNA, 6 days
[5] = tested on: BBN-induced bladder tumors; experiment: BBN-induced mouse bladder cancer model (tumor incidence; PCNA and TUNEL indexes of tumors); settings: for Carcinoma, No. (%) / Preneoplastic lesions, No. (%): 0.05% BBN
Protocol: as §2, §3

AR = target: T1, AR (Homo sapiens, UniProt P10275); settings: TCC-SUP and UMUC3 cells, MMTV-Luc, 24 h
T1 sequence (P10275 1-920): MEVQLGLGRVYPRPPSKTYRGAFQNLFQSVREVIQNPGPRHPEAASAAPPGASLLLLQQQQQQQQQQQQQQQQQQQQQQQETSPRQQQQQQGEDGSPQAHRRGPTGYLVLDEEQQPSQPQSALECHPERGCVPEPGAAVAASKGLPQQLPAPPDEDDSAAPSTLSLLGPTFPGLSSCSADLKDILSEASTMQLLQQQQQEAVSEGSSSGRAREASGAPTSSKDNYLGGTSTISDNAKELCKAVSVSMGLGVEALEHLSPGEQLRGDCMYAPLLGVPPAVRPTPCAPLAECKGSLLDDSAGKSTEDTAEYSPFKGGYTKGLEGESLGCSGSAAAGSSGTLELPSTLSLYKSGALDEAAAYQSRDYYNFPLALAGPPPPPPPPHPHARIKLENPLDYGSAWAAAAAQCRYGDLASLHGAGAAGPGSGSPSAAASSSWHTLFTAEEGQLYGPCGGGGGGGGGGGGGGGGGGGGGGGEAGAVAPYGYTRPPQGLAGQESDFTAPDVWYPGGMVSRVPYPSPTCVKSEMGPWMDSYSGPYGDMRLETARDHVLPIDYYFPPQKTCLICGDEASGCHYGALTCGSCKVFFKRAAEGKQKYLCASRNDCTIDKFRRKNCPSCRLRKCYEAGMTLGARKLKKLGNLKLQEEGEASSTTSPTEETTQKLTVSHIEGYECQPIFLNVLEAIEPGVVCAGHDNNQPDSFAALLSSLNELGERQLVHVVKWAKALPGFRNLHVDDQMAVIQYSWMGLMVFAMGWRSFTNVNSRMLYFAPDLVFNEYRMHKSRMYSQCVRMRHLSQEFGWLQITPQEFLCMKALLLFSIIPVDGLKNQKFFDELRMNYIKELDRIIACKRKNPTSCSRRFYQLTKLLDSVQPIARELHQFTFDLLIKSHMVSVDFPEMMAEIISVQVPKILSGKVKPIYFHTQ
Protocol: Cell transfections and luciferase assays were performed as previously described (Miyamoto et al., Int. J. Cancer, 117:866-72 (2005) and Miyamoto et al., Proc. Natl. Acad. Sci. USA, 100:4440-4 (2003)). Briefly, bladder cancer cells at a density of 50-60% confluence in 12-well tissue culture plates were transfected with 1.5 μg of plasmid DNA using SuperFect transfection reagent (Qiagen) according to the manufacturer's instructions. […] Cells were harvested, lysed, and assayed for luciferase activity. A Dual-Luciferase Reporter Assay kit (Promega) and luminometer (TD-20/20, Turner BioSystems) were used to determine the level of luciferase activity in the cell extracts.

[6] = tested on: BBN-induced bladder cancer; settings: rats; castration had a much stronger effect; cited from earlier work
[7] = tested on: AR-negative 5637 xenograft tumors; experiment: 5637 mouse xenograft, tumor progression study; type: in vivo, male athymic nude mouse; settings: androgen deprivation therapy (castration and/or flutamide) at 12 weeks
Protocol: Bladder cancer cell lines (TCC-SUP, UMUC3, and 5637) were harvested, washed twice with PBS, and resuspended in Matrigel (BD Bioscience) at a final concentration of 1×10^7 cells/mL. Cells (1×10^6 cells in 100 μl per site) were then injected subcutaneously into the right and left flanks of 6-week-old male athymic nude mouse. […] Med. […] Hormonal pellets were replaced as required (every 90 days). Tumor weight was calculated by the following formula: tumor weight (mg)=tumor length (mm)×[tumor width (mm)]^2×0.5 (Geram et al., Cancer Chemother. Rep., 3:47-52 (1972)).

[8] = harvested TCC-SUP tumors, ASC-J9 50 mg/Kg
[9] = harvested TCC-SUP tumors, real-time RT-PCR
[10] = ARKO male mice + DHT pellet 1.5 mg/mouse/90 days, age 20 weeks
[11] = ARKO male mice + DHT pellet, age 30 weeks
[12] = ARKO male mice + DHT pellet, age 40 weeks
[13] = male ARKO mice treated with BBN and DHT, 40 weeks

In the case of `COc1ccc(C=CC(=O)C=C(O)C=Cc2ccc(OC)c(OC)c2)cc1OC` [ASC-J9, 5-hydroxy-1,7-bis(3,4-dimethoxyphenyl)-1,4,6-heptatrien-3-one], the “effect on DHT-simulated growth” value (TCC-SUP cells; TCC-SUP, 1 μM ASC-J9 + 1 nM DHT) was “inhibited”, the “effect on DHT-simulated growth” value (UMUC3 cells; UMUC3, 1 μM ASC-J9 + 1 nM DHT) was “inhibited” and the “reduction in tumor size” value (TCC-SUP xenograft tumors; ASC-J9 50 mg/Kg intraperitoneal every other day, over 16 weeks of treatment) was 58%. For the same molecule, the “apoptotic index of harvested tumors” value (TCC-SUP xenograft tumors; [8]) was “increased”, the “proliferation index of harvested tumors” value (TCC-SUP xenograft tumors; [8]) was “decreased” and the “levels of angiogenic factors and metastasis-related factors (bFGF, VEGF, MMP-9) in tumors” value (TCC-SUP xenograft tumors; [9]) was “reduced”. For the same molecule, the “reduction of AR expression in tumors” value (TCC-SUP xenograft tumors; harvested TCC-SUP tumors, real-time RT-PCR, ASC-J9 50 mg/Kg) was 39% and the “latency of tumor formation” value ([1]; vs. control-siRNA cells with control treatment, treatment from tumor cell implantation, tumor positive at 40 mm3) was “substantially prolonged”.
For `CCCCN(CCCCO)N=O` [BBN, N-butyl-N-(4-hydroxybutyl)nitrosamine], the “hyperplasia in the bladder, incidence” value [2] was 17%, the invasive carcinoma incidence [2] was 50% and the “preneoplastic bladder lesions incidence” value [2] was 50-67%. For the same molecule, the “preneoplastic lesions (hyperplasias or papillomas) incidence” value [2] was 75% and the “frequency of bladder carcinomas by 40 weeks” value [3] was 30-100%.
With `C[C@]12CCC(=O)C[C@@H]1CC[C@@H]1[C@@H]2CC[C@]2(C)[C@@H](O)CC[C@@H]12` [DHT, dihydrotestosterone] the effect on growth (TCC-SUP cells) was “did not affect the growth”, the “increase of cell growth” value (TCC-SUP cells; TCC-SUP, 1 nM DHT, vs. ETOH) was 55% and the “increase of cell growth” value (UMUC3 cells; UMUC3, 1 nM DHT, vs. ETOH) was 45%. For the same molecule, the effect on growth (UMUC3 cells) was “did not affect the growth”, the effect on growth [4] was “did not affect the growth” and the “Carcinoma, No. (%)” value [5, 10] was 0 (0) No. (%). For the same molecule, the “Preneoplastic lesions, No. (%)” value [5, 10] was 0 (0) No. (%), the “Carcinoma, No. (%)” value [5, 11] was 1 (0)∵ No. (%) and the “Preneoplastic lesions, No. (%)” value [5, 11] was 3 (38) No. (%). For the same molecule, the “Carcinoma, No. (%)” value [5, 12] was 3 (25)‡‡ No. (%), the “Preneoplastic lesions, No. (%)” value [5, 12] was 5 (42) No. (%) and the carcinoma incidence [5, 13] was 25%. For the same molecule, the preneoplastic lesions incidence [5, 13] was 42%.
In the case of `CC(C)(O)C(=O)Nc1ccc([N+](=O)[O-])c(C(F)(F)F)c1` [HF, hydroxyflutamide], the “effect on DHT-induction of luciferase” value (AR; 5 μM HF + 1 nM DHT) was “clearly inhibited”, the “agonist activity alone (luciferase)” value (AR; 5 μM HF alone) was “only marginal agonist activity” and the effect on growth (TCC-SUP cells) was “did not affect the growth”. For the same molecule, the “reduction of the DHT effect on cell growth” value (TCC-SUP cells; TCC-SUP, 5 μM HF + 1 nM DHT, range given for both lines) was 67-75%, the “effect on cell proliferation” value (TCC-SUP cells; control (scrambled siRNA) TCC-SUP subline, 1 nM DHT and/or 5 μM HF) was “antagonized the DHT effect” and the “reduction of the DHT effect on cell growth” value (UMUC3 cells; UMUC3, 5 μM HF + 1 nM DHT, range given for both lines) was 67-75%. For the same molecule, the effect on growth (UMUC3 cells) was “did not affect the growth”, the “effect on cell proliferation” value (UMUC3 cells; control (scrambled siRNA) UMUC3 subline, 1 nM DHT and/or 5 μM HF) was “antagonized the DHT effect” and the effect on growth [4] was “did not affect the growth”.
In the case of `CC(C)(C)NC(=O)[C@H]1CC[C@H]2[C@@H]3CC[C@H]4NC(=O)C=C[C@]4(C)[C@H]3CC[C@]12C` [finasteride, Finasteride], the “development of BBN-induced bladder cancer” value [6] is listed as “only slightly suppressed”.
With `CC(C)C(=O)Nc1ccc([N+](=O)[O-])c(C(F)(F)F)c1` [flutamide, Flutamide] the “tumor size vs. control mice” value (TCC-SUP xenograft tumors; castration and/or antiandrogen (flutamide pellet), at 16 weeks) was “statistically significantly smaller”, the “levels of angiogenic factors and metastasis-related factors (bFGF, VEGF, MMP-9) in tumors” value (TCC-SUP xenograft tumors; [9]) was “reduced” and the “reduction in tumor size” value [7] was “up to 12%”. The “tumorigenicity of AR-expressing (control-siRNA-transfected) bladder cancer” value ([1]; androgen deprivation (castration or flutamide pellet)) was “suppressed tumorigenicity” and the “development of AR-siRNA-expressing tumors” value ([1]; castration and flutamide treatment) was “little effect”.
